This note sets out measurements from US20200024299A1, “CRYSTALLINE FORMS OF A BILE ACID DERIVATIVE” (Intercept Pharmaceuticals, Inc., priority 2016, published 2020).

For orientation: solubility means the dissolved amount per volume that the medium holds. A low value points to a poorly soluble substance.

Common to all, as to format: physicochemical
A short description of data set [1]: Storage stability at controlled temperature / relative humidity.
Data set [2] can be described thus: Gravimetric Vapor Sorption (GVS), hygroscopicity. On the procedure:
Sorption isotherms were obtained using a SMS DVS Intrinsic moisture sorption analyzer, controlled by DVS Intrinsic Control software v1.0.1.2 (or v 1.0.1.3). The sample temperature was maintained at 25° C. by the instrument controls. The humidity was controlled by mixing streams of dry and wet nitrogen, with a total flow rate of 200 mL/min. The relative humidity was measured by a calibrated Rotronic probe (dynamic range of 1.0-100% RH), located near the sample. The weight change, (mass relaxation) of the sample as a function of % RH was constantly monitored by the microbalance (accuracy ±0.005 mg).
Typically, 5-20 mg of sample was placed in a tared mesh stainless steel basket under ambient conditions. The sample was loaded and unloaded at 40% RH and 25° C. (typical room conditions). A moisture sorption isotherm was performed as outlined below (2 scans giving 1 complete cycle). The standard isotherm was performed at 25° C. at 10% RH intervals over a 0-90% RH range. Data analysis was carried out using Microsoft Excel using DVS Analysis Suite v6.2 (or 6.1 or 6.0).

Data set [3] in a line: Aqueous solubility at 25° C. The settings on record: water.
Data set [4] can be described thus: Variable Temperature XRPD (physical stability on heating). The settings on record: upon heating. On the procedure:
X-Ray Powder Diffraction patterns were collected on a Bruker AXS C2 GADDS diffractometer using Cu Kα radiation (40 kV, 40 mA), automated XYZ stage, laser video microscope for auto-sample positioning and a HiStar 2-dimensional area detector. X-ray optics consists of a single Gobel multilayer mirror coupled with a pinhole collimator of 0.3 mm. A weekly performance check is carried out using a certified standard NIST 1976 Corundum (flat plate).
The beam divergence, i.e., the effective size of the X-ray beam on the sample, was approximately 4 mm. A 0-0 (theta-theta) continuous scan mode was employed with a sample—detector distance of 20 cm which gives an effective 20 (theta) range of 3.2°-29.7°. Typically, the sample would be exposed to the X-ray beam for 120 seconds. The software used for data collection was GADDS for XP/2000 4.1.43 and the data were analyzed and presented using Diffrac Plus EVA v15.0.0.0.
Samples run under non-ambient conditions were mounted on a silicon wafer with heat-conducting compound. The sample was then heated to the appropriate temperature at 20° C./min and subsequently held isothermally for 1 minute before data collection was initiated.

[5] abbreviates: listed as Amorphous Form of Compound 1-Na.

Entries after “also recorded” stand apart in the source; their conditions may differ.

For the compound `CC[C@H]1[C@@H](O)C2C3CC[C@H]([C@H](C)CCOS(=O)(=O)[O-])[C@@]3(C)CCC2[C@@]2(C)CC[C@@H](O)C[C@@H]12.[Na+]` (stereo partly drawn) [6α-ethyl-3α,7α,23-trihydroxy-24-nor-5β-cholan-23-sulphate sodium], the “12 days Storage @ 25° C./60% RH” value in data set [1] (12 days, 25° C./60% RH) is listed as “Unchanged”. Also, the “12 days Storage @ 40° C./60% RH” value in data set [1] (12 days, 40° C./60% RH) was “Unchanged”. The “GVS water uptake from 40% to 60% RH” value in data set [2] (40% to 60% RH) is on record as 2.6% w/w of water uptake from 40% to 60% RH. The “XRPD post GVS” value in data set [2] (after GVS) is “Unchanged”. The “GVS hysteresis (process reversible)” value in data set [2] (sorption/desorption) is listed as approximately 1% w/w. For the same compound, in data set [2] (whole GVS cycle), the “GVS total water uptake” value is listed as “Total of 8% w/w water uptake”.
In the case of `CC[C@H]1[C@@H](O)C2C3CC[C@H]([C@H](C)CCOS(=O)(=O)[O-])[C@@]3(C)CCC2[C@@]2(C)CC[C@@H](O)C[C@@H]12.[Na+]` (stereo partly drawn) [Amorphous Compound 1-Na, 6α-ethyl-3α,7α,23-trihydroxy-24-nor-5β-cholan-23-sulphate sodium], in data set [3], the “Aqueous Solubility (25° C.)” value was more than 200 mg/mL and the solubility is more than 200 mg/mL. For the same compound, the “Storage @ 25° C./60% RH” value in data set [1] (25° C./60% RH) was “Unchanged for at least 1 month”. The “Storage @ 25° C./60% RH” value in data set [1] (25° C./60% RH, listed as Amorphous Form of Compound 1-Na) is given as “physically stable for at least 1 month”. Further, in data set [1], the “Storage @ 25° C./97% RH” value is reported as “Deliquesced in less than days” and the “Storage @ 40° C./75% RH” value is “Deliquesced in less than 3 days”. In addition, in data set [1] (setting [5]), the “Storage @ 25° C./97% RH” value is “deliquescent” and the “Storage @ 40° C./75% RH” value is on record as “deliquescent”.
Take `CC[C@H]1[C@@H](O)C2C3CC[C@H]([C@H](C)CCOS(=O)(=O)[O-])[C@@]3(C)CCC2[C@@]2(C)CC[C@@H](O)C[C@@H]12.[Na+]` (stereo partly drawn) [Example 5, 6α-ethyl-3α,7α,23-trihydroxy-24-nor-5β-cholan-23-sulphate sodium]: the “Storage @ 25° C./60% RH” value in data set [1] (25° C./60% RH) is “stable for at least one month; also recorded: Unchanged for at least 1 month”. Besides, in data set [1], the “Storage @ 25° C./97% RH” value is “deliquesced sample after 3 days; also recorded: Deliquesced in three days” and the “Storage @ 40° C./75% RH” value is “deliquesced sample after 3 days; also recorded: Deliquesced in three days”. Besides, in data set [2] (25° C., 40% to 80% RH), the “GVS water uptake from 40% to 80% RH” value turned out to be 4 % w/w and the “GVS water uptake from 40% to 80% RH (equivalents of water)” value is given as 1.1 eq. Further, in data set [2] (25° C., 80% to 90% RH), the “GVS water uptake from 80% to 90% RH” value was 24 % w/w and the “GVS water uptake from 80% to 90% RH (equivalents of water)” value was 6.6 eq. Besides, the “GVS: state of sample during the analysis” value in data set [2] (25° C., up to 90% RH) was “the sample deliquesced”. Moreover, the “Hygroscopic profile from 40% to 80% RH” value in data set [2] (40% to 80% RH) is “moderate hygroscopic profile”. In data set [2] (RH greater than 80%), the “GVS water uptake at RH greater than 80%” value was found to be 24%, the “GVS water uptake at RH greater than 80% (equivalents of water)” value turned out to be 6.6 eq and the “Hygroscopic profile at RH greater than 80%” value is listed as “very hygroscopic profile”. In addition, the VT-XRPD result in data set [4] is on record as “unchanged upon heating”.
For the compound `CC[C@H]1[C@@H](O)C2C3CC[C@H]([C@H](C)CCOS(=O)(=O)[O-])[C@@]3(C)CCC2[C@@]2(C)CC[C@@H](O)C[C@@H]12.[Na+]` (stereo partly drawn) [Form A of Compound 1-Na Formed via Suspension] [6α-ethyl-3α,7α,23-trihydroxy-24-nor-5β-cholan-23-sulphate sodium], the “Storage @ 25° C./60% RH” value in data set [1] (25° C./60% RH) was “successful for at least 1 month; also recorded: Unchanged for at least 1 month”. Moreover, in data set [1], the “Storage @ 25° C./97% RH” value is “Deliquesced in less than 3 days” and the “Storage @ 40° C./75% RH” value was “Deliquesced in less than 3 days”.
